# Structures can show the parent of a compound that is named as a salt.
# B1: rhASM: Recombinant human acid sphingomyelinase, enzyme replacement therapy for NP-A/B (protein, UniProt P17405 47-631, looked up)
# Sphingomyelin …: LALSDSRVLWAPAEAHPLSPQGHPARLHRIVPRLRDVFGWGNLTCPICKGLFTAINLGLKKEPNVARVGSVAIKLCNLLKIAPPAVCQSIVHLFEDDMVEVWRRSVLSPSEACGLLLGSTCGHWDIFSSWNISLPTVPKPPPKPPSPPAPGAPVSRILFLTDLHWDHDYLEGTDPDCADPLCCRRGSGLPPASRPGAGYWGEYSKCDLPLRTLESLLSGLGPAGPFDMVYWTGDIPAHDVWHQTRQDQLRALTTVTALVRKFLGPVPVYPAVGNHESTPVNSFPPPFIEGNHSSRWLYEAMAKAWEPWLPAEALRTLRIGGFYALSPYPGLRLISLNMNFCSRENFWLLINSTDPAGQLQWLVGELQAAEDRGDKVHIIGHIPPGHCLKSWSWNYYRIVARYENTLAAQFFGHTHVDEFEVFYDEETLSRPLAVAFLAPSATTYIGLNPGYRVYQIDGNYSGSSHVVLDHETYILNLTQANIPGAIPHWQLLYRARETYGLPNTLPTAWHNLVYRMRGDMQLFQTFWFLYHKGHPPSEPCGTPCRLATLCAQLSARADSPALCRHLMPDGSLPEAQSLWPRPLFC
# Legend:
# Assay type in all cases: cell-based, human
# [1] = test system: lysosomes in HDF cells; test: 2-IM upon addition of lysosomal proton pump and ion channel blocker; conditions: ChloropHoreLy labelled, 500 nM bafilomycin A1 or 300 μM NPPB, 45 min
# Description: Lysosomal pH and chloride measurements. Fibroblast cells are pulsed with 2 μM of I^mLy, ChloropHore or ChloropHoreLy for 1 h, chased for 9 h (30 min pulse and 1 h chase for J774. A1, BHK-21 and T47D cells) and then washed with 1×PBS and subjected for imaging.
# 2-IM upon addition of lysosomal proton pump and ion channel blocker. Upon lysosome labeling, final concentration of 500 nM bafilomycinA1 and 300 μM of 5-nitro-2-(3-phenylpropyl-amino) benzoic acid (NPPB) were added to cells and incubated for 45 min. Cells was then washed with PBS and imaged in Hank's Balanced Salt Solution (HBSS) containing the respective blocker compounds.
# (§1) Image analysis for pH and sensors. Images were analyzed with ImageJ/Fiji 2.0.0-rc-54/1.51h. pH and chloride measurements are performed as described previously. To generate a density plot to represent lysosomal populations, the individual D/A (Y-axis) versus the corresponding R/G (X-axis) values was first plotted for each lysosome that was obtained for a given fibroblast sample comprising ˜60 cells and ˜600 lysosomes. Density plots were generated using 2D Kernel Density plot on Origin 2018 SR1 b9.5.1.195 (OriginLab, USA). […] To normalize between experiments done on different days, the lysosomal pH and Cl− of a sample of normal HDF cells was always measured as well, the density plot of which served as the reference. […]
# [2] = test system: lysosomes in HDF cells; test: 2-IM in pharmacologically induced cell culture models for NP-A/B and NP-C; conditions: HDF cells from a healthy individual; 65 μM AH or 20 μM U18666A, 24 h
# Description: Niemann Pick type A/B and C models were prepared according to the previous reported method. Cells were incubated with 65 μM of the acid sphingomyelinase (ASM) inhibitor amitriptyline (AH) and 20 μM of the NPC1 inhibitor U18666A for 24 h to create a NP-A/B and NP-C models respectively. The cells are pulsed with 2 μM of ChloropHoreLY and either 65 μM AH or 20 μM U18666A for 1 h, chased with either 65 μM AH or 20 μM U18666A for 9 h and then washed with 1×PBS and imaged.
# Image analysis for pH and sensors. Images were analyzed with ImageJ/Fiji 2.0.0-rc-54/1.51h. pH and chloride measurements are performed as described previously. To generate a density plot to represent lysosomal populations, the individual D/A (Y-axis) versus the corresponding R/G (X-axis) values was first plotted for each lysosome that was obtained for a given fibroblast sample comprising ˜60 cells and ˜600 lysosomes. Density plots were generated using 2D Kernel Density plot on Origin 2018 SR1 b9.5.1.195 (OriginLab, USA). This converted the individual scatter points into a population matrix as a probability density function. The density plot is then pseudo colored to represent high density in red (values close to 1) and low density in blue (values closer to 0). Those points with <10% probability on the plot were discarded. For normalization between days, the point of highest density (value =1) of normal HDF cells was designated as the center of the plot with x,y coordinates (1,1). To normalize between experiments done on different days, the lysosomal pH and Cl− of a sample of normal HDF cells was always measured as well, the density plot of which served as the reference. All density plots acquired on the same day with the same settings were thus normalized to the HDF cell density plots to enable comparison of data across different days.
# [3] = test system: lysosomes of NP-C patient fibroblasts; test: Lysosomal population rescue using β-CD in NP-C patient fibroblasts (2-IM); conditions: NP-C patient samples mutated in NPC1 or NPC2, 50 μM, 24 h
# Description: (§2) Lysosomal population rescue using ASM and β-CD. Recombinant human acid sphingomyelinase was incubated with NP-A/B patient cells according to the previous method. Primary human fibroblasts derived from NP-A/B patients were maintained in DMEM medium with 1% FBS for 24 h. The medium was then changed to DMEM with 1% FBS containing 0.2% BSA and 5 μg of rhASM. After 24 h, the cells are pulsed with 2 μM of ChloropHoreLy for 1 h, chased for 9 h and then washed with 1×PBS and imaged. Primary human fibroblasts from NP-C patient were incubated with 50 μM of o-Hydroxypropyl-β-cyclodextrin (β-CD) for 24 h. The cells are pulsed with 2 μM of ChloropHoreLy and 50 μM of β-CD for 1 h, chased with 50 μM of β-CD for 9 h and then washed with 1×PBS and imaged.
# as §1, with “lysosomes.” for “lysosomes. Density plots were generated using 2D Kernel Density plot on Origin 2018 SR1 b9.5.1.195 (OriginLab, USA).”
# [4] = test system: lysosomes of NP-A and NP-B patient fibroblasts; test: Lysosomal population rescue using ASM in NP-A/B patient fibroblasts (2-IM); conditions: 5 μg rhASM, 24 h
# Description: as §2
# as §1, with “lysosomes.” for “lysosomes. Density plots were generated using 2D Kernel Density plot on Origin 2018 SR1 b9.5.1.195 (OriginLab, USA).”
Molecule,"high Cl-, high acidity lysosome population (2-IM profile) [1]","high chloride, high acidity lysosome population (2-IM profile) [2]",lysosome population in 2-IM profile [2],also measured
O=C(O)c1cc([N+](=O)[O-])ccc1NCCCc1ccccc1 [5-nitro-2-(3-phenylpropylamino) benzoic acid],lost,–,–,–
CCN(CC)CCO[C@H]1CC[C@@]2(C)C(=CC[C@@H]3[C@@H]2CC[C@]2(C)C(=O)CC[C@@H]32)C1 [U18666A],–,depletion,monodisperse,–
CN(C)CCC=C1c2ccccc2CCc2ccccc21 [amitriptyline hydrochloride],–,depletion,monodisperse,–
CO/C1=C\C(C)=C\[C@@H](C)[C@@H](O)[C@@H](C)C/C(C)=C/C=C/[C@H](OC)[C@@H]([C@@H](C)[C@@H](O)[C@H](C)[C@@]2(O)C[C@@H](O)[C@H](C)[C@@H](C(C)C)O2)OC1=O [bafilomycin Al],lost,–,–,–
o-2-hydroxypropyl-β-cyclodextrin [RCD],–,–,–,lysosomes with higher lumenal Cl- and H+ content (2-IM profile) [3]: appearance; monodispersity of the 2-IM profile [3]: loss of monodispersity
B1,–,–,–,"high chloride, high acidity lysosome population (2-IM profile) [4]: reemergence"
